Values of other authors in patent publication US20150202321A1, “COMPOSITIONS COMPRISING CHITOSAN-DRUG CONJUGATES AND METHODS OF MAKING AND USING THE SAME” (NEWGEN BIOPHARMA CORP., priority 2012, published 2015).
Counter-ions that a name gives are not always drawn. Like-named read-outs stand apart in the source and are kept apart here.

Legend:
[1] = oral
[2] = not given; remark: listed apart in the source

CC(C)c1c(C(=O)Nc2ccccc2)c(-c2ccccc2)c(-c2ccc(F)cc2)n1CC[C@@H](O)C[C@@H](O)CC(=O)O [AT, [R—(R/,R/)]-2-(4-fluorophenyl)-b,d-dihydroxy-5-(1-methylethyl)-3-phenyl-4-[(phenylamino)carbonyl]-1H-pyrrole-1-heptanoic acid, calcium salt (2:1) trihydrate]
systemic availability for HMG-CoA reductase activity [1]: approximately 30%

CC(=O)O[C@@]12CO[C@@H]1C[C@H](O)[C@@]1(C)C(=O)[C@H](O)C3=C(C)[C@@H](OC(=O)[C@H](O)[C@@H](NC(=O)OC(C)(C)C)c4ccccc4)C[C@@](O)([C@@H](OC(=O)c4ccccc4)[C@H]21)C3(C)C [docetaxel]
bioavailability (intravenous administration): 100% | oral bioavailability (co-administered with cyclosporine): 90%±44% | oral bioavailability (on its own): 8%±6%

CC(C)c1nc(N(C)S(C)(=O)=O)nc(-c2ccc(F)cc2)c1/C=C/[C@@H](O)C[C@@H](O)CC(=O)O [rosuvastatin]
AUC following evening or morning drug administration ([2]; evening versus morning): does not differ | absolute bioavailability ([2]; man): approximately 20% | elimination half life ([2]; man): ~19 h
